According to patent publication US11739070B2, “C5A receptor modulators” (IDORSIA PHARMACEUTICALS LTD, priority 2018, dated 2023):

Target: T1, C5AR1 (Homo sapiens, UniProt P21730)
T1 construct: host or cells: CHO-K1
T1 sequence (P21730 1-350): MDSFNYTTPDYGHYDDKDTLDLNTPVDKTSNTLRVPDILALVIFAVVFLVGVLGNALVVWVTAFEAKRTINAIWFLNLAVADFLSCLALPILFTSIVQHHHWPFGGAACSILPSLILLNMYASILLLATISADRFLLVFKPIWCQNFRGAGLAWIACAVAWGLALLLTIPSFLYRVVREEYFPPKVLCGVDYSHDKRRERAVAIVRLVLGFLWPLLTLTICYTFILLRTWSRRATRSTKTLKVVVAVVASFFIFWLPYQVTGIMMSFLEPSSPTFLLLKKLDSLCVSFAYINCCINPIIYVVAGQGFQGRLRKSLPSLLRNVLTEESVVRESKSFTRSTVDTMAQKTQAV
Assay: hC5a DISCO IC50 assay (PathHunter beta-arrestin, antagonist mode)
Assay type: cell-based
Conditions: CHO-K1 C5AR1 beta-arrestin cell line; antagonist vs 1-10 nM C5a agonist; geometric mean values; read-out: C5aR IC50
Protocol: II. Biological Assays In Vitro Assay hC5a DISCO IC50 Assay
5 μl Antagonist at 6-fold end concentration or DMSO control is added to assay medium and subsequently 5 μl 1-10 nM C5a agonist at 6 fold end concentration. Cells are centrifuged for 1 min at 1000 rpm and incubated for 1.5 hour in at 37° C. Plates are equilibrated at room temperature for several minutes before adding 12 μl/well Detection Reagent (PathHunter Detection Kit, DiscoverX, Cat #93-0001). Plates are centrifuged for 1 min at 1000 rpm and incubated for 45 minutes at RT before being measured on a Fluostar Optima, BMG Labtech. IC50 values are calculated from a serial dilution range of antagonist using inhouse software and given in nmol/l.
The calculated IC50 values may fluctuate depending on the daily cellular assay performance. Fluctuations of this kind are known to those skilled in the art. Average IC50 values from several measurements are given as geometric mean values.

Row | SMILES | IC50 [nM]
1 | COCC(C)NCc1cccc(F)c1N1CC[C@@H](n2c(=O)n(Cc3ccccc3C(F)(F)F)c3c(OC)cccc32)C1 (stereo partly drawn) [Example 142, 1-((R)-1-{2-Fluoro-6-[(2-methoxy-1-methyl-ethylamino)-methyl]-phenyl}-pyrrolidin-3-yl)-4-methoxy-3-(2-trifluoromethyl-benzyl)-1,3-dihydro-benzoimidazol-2-one] | 108
2 | COc1cccc2c1n(Cc1ccccc1C(F)(F)F)c(=O)n2C1CCN(c2c(C)c(C3CC3)nn2C)CC1 [Example 25, 1-[1-(5-Cyclopropyl-2,4-dimethyl-2H-pyrazol-3-yl)-piperidin-4-yl]-4-methoxy-3-(2-trifluoromethyl-benzyl)-1,3-dihydro-benzoimidazol-2-one] | 185
3 | COc1ccccc1N1CC[C@@H](n2c(=O)n(Cc3ccccc3C(F)(F)F)c3c(OC)cccc32)C1 [Example 16, 4-Methoxy-1-[(R)-1-(2-methoxy-phenyl)-pyrrolidin-3-yl]-3-(2-trifluoromethyl-benzyl)-1,3-dihydro-benzoimidazol-2-one] | 19
4 | COc1nccc(C)c1N1CC[C@@H](n2c(=O)n(Cc3ccccc3C(F)(F)F)c3c(OC)nccc32)C1 [Example 47, 4-Methoxy-1-[(R)-1-(2-methoxy-4-methyl-pyridin-3-yl)-pyrrolidin-3-yl]-3-(2-trifluoromethyl-benzyl)-1,3-dihydro-imidazo[4,5-c]pyridin-2-one] | 95
5 | COc1cccc2c1n(Cc1ccccc1C(F)(F)F)c(=O)n2[C@@H]1CCN(c2c(F)cccc2C(C)O)C1 (stereo partly drawn) [Example 89, 1-{(R)-1-[2-Fluoro-6-(1-hydroxy-ethyl)-phenyl]-pyrrolidin-3-yl}-4-methoxy-3-(2-trifluoromethyl-benzyl)-1,3-dihydro-benzoimidazol-2-one] | 44
6 | N#Cc1cccc(F)c1N1CC[C@@H](n2c(=O)n(Cc3ccccc3C(F)(F)F)c3c(C(N)=O)cccc32)C1 [Example 100, 1-[(R)-1-(2-Cyano-6-fluoro-phenyl)-pyrrolidin-3-yl]-2-oxo-3-(2-trifluoromethyl-benzyl)-2,3-dihydro-1H-benzoimidazole-4-carboxylic acid amide] | 1430
7 | COc1ccccc1Cn1c(=O)n([C@@H]2CCN(c3c(C)cccc3F)C2)c2cccc(OC)c21 [Example 110, 1-[(R)-1-(2-Fluoro-6-methyl-phenyl)-pyrrolidin-3-yl]-4-methoxy-3-(2-methoxy-benzyl)-1,3-dihydro-benzoimidazol-2-one] | 6
8 | N#Cc1cccc(F)c1N1CC[C@@H](n2c(=O)n(Cc3ccccc3C(F)(F)F)c3c(C(=O)NCCO)cccc32)C1 [Example 193, 1-[(R)-1-(2-Cyano-6-fluoro-phenyl)-pyrrolidin-3-yl]-2-oxo-3-(2-trifluoromethyl-benzyl)-2,3-dihydro-1H-benzoimidazole-4-carboxylic acid (2-hydroxy-ethyl)-amide] | 632
9 | COc1nccnc1Cn1c(=O)n(C2CCN(c3c(C)cccc3F)CC2)c2cccc(OC)c21 [Example 170, 1-[1-(2-Fluoro-6-methyl-phenyl)-piperidin-4-yl]-4-methoxy-3-(3-methoxy-pyrazin-2-ylmethyl)-1,3-dihydro-benzoimidazol-2-one] | 45
10 | COCCNc1nccc2c1n(Cc1ccccc1C(F)(F)F)c(=O)n2[C@@H]1CCN(c2c(C)cccc2F)C1 [Example 207, 1-[(R)-1-(2-Fluoro-6-methyl-phenyl)-pyrrolidin-3-yl]-4-(2-methoxy-ethylamino)-3-(2-trifluoromethyl-benzyl)-1,3-dihydro-imidazo[4,5-c]pyridin-2-one] | 508
11 | COc1cccc2c1n(Cc1ncccc1C(F)(F)F)c(=O)n2C1CCN(c2c(F)cccc2F)CC1 [Example 76, 1-[1-(2,6-Difluoro-phenyl)-piperidin-4-yl]-4-methoxy-3-(3-trifluoromethyl-pyridin-2-ylmethyl)-1,3-dihydro-benzoimidazol-2-one] | 38
12 | COc1cccc2c1n(Cc1ccncc1C(F)(F)F)c(=O)n2C1CCN(c2c(C)cccc2C)CC1 [Example 73, 1-[1-(2,6-Dimethyl-phenyl)-piperidin-4-yl]-4-methoxy-3-(3-trifluoromethyl-pyridin-4-ylmethyl)-1,3-dihydro-benzoimidazol-2-one] | 272
13 | CCCCOC(=O)N1CC[C@@H](n2c(=O)n(Cc3ccccc3C(F)(F)F)c3c(OC)cccc32)C1 [Example 62, (R)-3-[4-Methoxy-2-oxo-3-(2-trifluoromethyl-benzyl)-2,3-dihydro-benzoimidazol-1-yl]-pyrrolidine-1-carboxylic acid butyl ester] | 99
14 | COc1ccccc1Cn1c(=O)n([C@@H]2CCN(c3c(C)cccc3F)C2)c2ccnc(OC)c21 [Example 78, 1-[(R)-1-(2-Fluoro-6-methyl-phenyl)-pyrrolidin-3-yl]-4-methoxy-3-(2-methoxy-benzyl)-1,3-dihydro-imidazo[4,5-c]pyridin-2-one] | 121

The remaining lines, values ahead:

Row | IC50 [nM] | SMILES
15 | 314 | COc1cccc2c1n(Cc1ccccc1C(F)(F)F)c(=O)n2[C@@H]1CCN(c2c(F)cccc2CN2CCN(C)CC2)C1 [Example 132, 1-{(R)-1-[2-Fluoro-6-(4-methyl-piperazin-1-ylmethyl)-phenyl]-pyrrolidin-3-yl}-4-methoxy-3-(2-trifluoromethyl-benzyl)-1,3-dihydro-benzoimidazol-2-one]
16 | 82 | COc1cccc2c1n(Cc1ccccc1C(F)(F)F)c(=O)n2C1CCN(c2ncccc2C)CC1 [Example 232, 4-Methoxy-1-(3′-methyl-3,4,5,6-tetrahydro-2H-[1,2′]bipyridinyl-4-yl)-3-(2-trifluoromethyl-benzyl)-1,3-dihydro-benzoimidazol-2-one]
17 | 48 | COc1cccc2c1n(Cc1cncnc1C(F)(F)F)c(=O)n2[C@@H]1CCN(c2c(C)cccc2F)C1 [Example 176, 1-[(R)-1-(2-Fluoro-6-methyl-phenyl)-pyrrolidin-3-yl]-4-methoxy-3-(4-trifluoromethyl-pyrimidin-5-ylmethyl)-1,3-dihydro-benzoimidazol-2-one]
18 | 17 | COc1cccc2c1n(Cc1ccccc1OC(C)C)c(=O)n2C1CCN(c2c(C)cccc2F)CC1 [Example 166, 1-[1-(2-Fluoro-6-methyl-phenyl)-piperidin-4-yl]-3-(2-isopropoxy-benzyl)-4-methoxy-1,3-dihydro-benzoimidazol-2-one]
19 | 14 | Cc1cccc(F)c1N1CC[C@@H](n2c(=O)n(Cc3ccccc3C(F)(F)F)c3c(OC4COC4)cccc32)C1 [Example 149, 1-[(R)-1-(2-Fluoro-6-methyl-phenyl)-pyrrolidin-3-yl]-4-(oxetan-3-yloxy)-3-(2-trifluoromethyl-benzyl)-1,3-dihydro-benzoimidazol-2-one]
20 | 509 | Cc1cccc(F)c1N1CC[C@@H](n2c(=O)n(Cc3ccccc3C(F)(F)F)c3c(OC4CCN(C(=O)OC(C)(C)C)CC4)nccc32)C1 [Example 122, 4-[1-[(R)-1-(2-Fluoro-6-methyl-phenyl)-pyrrolidin-3-yl]-2-oxo-3-(2-trifluoromethyl-benzyl)-2,3-dihydro-1H-imidazo[4,5-c]pyridin-4-yloxy]-piperidine-1-carboxylic acid tert-butyl ester]
21 | 3440 | COc1cccc2c1n(Cc1ccccc1C(F)(F)F)c(=O)n2C1CCN(c2cc(C3CC3)nn2C)CC1 [Example 21, 1-[1-(5-Cyclopropyl-2-methyl-2H-pyrazol-3-yl)-piperidin-4-yl]-4-methoxy-3-(2-trifluoromethyl-benzyl)-1,3-dihydro-benzoimidazol-2-one]
22 | 82 | COc1cccc2c1n(Cc1ccccc1C(F)(F)F)c(=O)n2C1CCN(c2ccccc2OC2CCOCC2)CC1 [Example 239, 4-Methoxy-1-{1-[2-(tetrahydro-pyran-4-yloxy)-phenyl]-piperidin-4-yl}-3-(2-trifluoromethyl-benzyl)-1,3-dihydro-benzoimidazol-2-one]
23 | 201 | COc1cccc2c1n(Cc1ccccc1C(F)(F)F)c(=O)n2C1CCN(C(=O)OC(C)(C)C)CC1C (centres unmarked) [Example 146, 4-[4-Methoxy-2-oxo-3-(2-trifluoromethyl-benzyl)-2,3-dihydro-benzoimidazol-1-yl]-3-methyl-piperidine-1-carboxylic acid tert-butyl ester]
24 | 273 | COc1ncnc(C)c1N1CCC(n2c(=O)n(Cc3ccccc3C(F)(F)F)c3c(OC)cccc32)CC1 [Example 249, 4-Methoxy-1-[1-(4-methoxy-6-methyl-pyrimidin-5-yl)-piperidin-4-yl]-3-(2-trifluoromethyl-benzyl)-1,3-dihydro-benzoimidazol-2-one]
25 | 201 | Cc1cccc(C)c1N1CC[C@@H](n2c(=O)n(Cc3ccccc3C(F)(F)F)c3c(NCCO)nccc32)C1 [Example 118, 1-[(R)-1-(2,6-Dimethyl-phenyl)-pyrrolidin-3-yl]-4-(2-hydroxy-ethylamino)-3-(2-trifluoromethyl-benzyl)-1,3-dihydro-imidazo[4,5-c]pyridin-2-one]
26 | 459 | COC(=O)N1CC[C@@H](n2c(=O)n(Cc3ccccc3C(F)(F)F)c3c(OC)cccc32)C1 [Example 26, (R)-3-[4-Methoxy-2-oxo-3-(2-trifluoromethyl-benzyl)-2,3-dihydro-benzoimidazol-1-yl]-pyrrolidine-1-carboxylicacid methyl ester]
